Experimental data published in ChEMBL document CHEMBL6078671, “Synthesis of aromatic glycoconjugates as anti-fungal agents against Candida spp. and assessment of their covalent crosslinking capabilities” (2025).
Converted amounts (≈) assume the structure as drawn.

Assays:
Assay type in all cases: functional
Candida parapsilosis = test: Fungicidal activity against Candida parapsilosis ATCC 22019 incubated for 24 hrs followed by replacement of medium without compound measured after 48 hrs; conditions: Lodderomyces parapsilosis
Clavispora lusitaniae = test: Fungicidal activity against Candida lusitaniae C18 incubated for 24 hrs followed by replacement of medium without compound measured after 48 hrs
[1] = system: Meyerozyma guilliermondii; test: Fungicidal activity against Candida guilliermondii C94 incubated for 24 hrs followed by replacement of medium without compound measured after 48 hrs
[Candida] auris = Fungicidal activity against Candida auris ATCC CMYA-5001 incubated for 24 hrs followed by replacement of medium without compound measured after 48 hrs; conditions: Candidozyma auris
Nakaseomyces glabratus = test: Fungicidal activity against Candida glabrata ATCC 90030 incubated for 24 hrs followed by replacement of medium without compound measured after 48 hrs
Candida albicans = test: Fungicidal activity against Candida albicans ATCC 10231 incubated for 24 hrs followed by replacement of medium without compound measured after 48 hrs

For `C=CS(=O)(=O)Nc1cc(C(=O)NCc2cn([C@H]3O[C@@H](C)[C@@H](O)[C@@H](O)[C@@H]3O)nn2)cc(C(=O)NCc2cn([C@H]3O[C@@H](C)[C@@H](O)[C@H](O)[C@@H]3O)nn2)c1`, which MFC (Candida parapsilosis) is on record?
Its MFC is > 10000 µg/mL.

What about the MFC (Clavispora lusitaniae) of the same molecule?
The MFC was > 10000 µg/mL.

And the MFC [1]?
The MFC was > 10000 µg/mL.

What about the MFC ([Candida] auris) of the same molecule?
The MFC was > 10000 µg/mL.

And the MFC (Nakaseomyces glabratus)?
Its MFC is > 10000 µg/mL.

What about the MFC (Candida albicans) of the same molecule?
The MFC was > 10000 µg/mL.

With `C=CC(=O)Nc1cc(C(=O)NCc2cn([C@H]3O[C@@H](C)[C@@H](O)[C@@H](O)[C@@H]3O)nn2)cc(C(=O)NCc2cn([C@H]3O[C@@H](C)[C@@H](O)[C@H](O)[C@@H]3O)nn2)c1` as the molecule, how does the MFC (Candida parapsilosis) read?
Its MFC is > 10000 µg/mL.

What about the MFC (Clavispora lusitaniae) of the same molecule?
The MFC was > 10000 µg/mL.

What about the MFC [1] of the same molecule?
The MFC was > 10000 µg/mL.

What about the MFC ([Candida] auris) of the same molecule?
The MFC was > 10000 µg/mL.

What about the MFC (Nakaseomyces glabratus) of the same molecule?
Its MFC is > 10000 µg/mL.

What about the MFC (Candida albicans) of the same molecule?
Its MFC is > 10000 µg/mL.

For `C=CS(=O)(=O)Nc1cc(C(=O)NCc2cn([C@@H]3O[C@H](CO)[C@H](O)[C@H](O)[C@H]3O)nn2)cc(C(=O)NCc2cn([C@@H]3O[C@H](CO)[C@H](O)[C@@H](O)[C@@H]3O)nn2)c1`, which MFC (Candida parapsilosis) is on record?
The MFC was > 10000 µg/mL.

And the MFC (Clavispora lusitaniae)?
The MFC was > 10000 µg/mL.

What about the MFC [1] of the same molecule?
The MFC was 10000 µg/mL (≈ 13.2 mM).

What about the MFC ([Candida] auris) of the same molecule?
Its MFC is 10000 µg/mL (≈ 13.2 mM).

What about the MFC (Nakaseomyces glabratus) of the same molecule?
The MFC was 10000 µg/mL (≈ 13.2 mM).

And the MFC (Candida albicans)?
Its MFC is > 10000 µg/mL.

`CCC(=O)Nc1cc(C(=O)NCc2cn([C@@H]3O[C@H](CO)[C@H](O)[C@H](O)[C@H]3O)nn2)cc(C(=O)NCc2cn([C@@H]3O[C@H](CO)[C@H](O)[C@@H](O)[C@@H]3O)nn2)c1` was tested. Which MFC [1] did it give?
Its MFC is 10000 µg/mL (≈ 13.9 mM).

What about the MFC (Nakaseomyces glabratus) of the same molecule?
Its MFC is 10000 µg/mL (≈ 13.9 mM).

What does the source list for `C=CC(=O)Nc1cc(C(=O)NCc2cn([C@H]3O[C@H](CO)[C@@H](O)[C@H](O)[C@@H]3O)nn2)cc(C(=O)NCc2cn([C@H]3O[C@H](CO)[C@@H](O)[C@H](O)[C@@H]3O)nn2)c1`?
MFC (Candida parapsilosis): > 10000 µg/mL; MFC (Clavispora lusitaniae): > 10000 µg/mL; MFC [1]: > 10000 µg/mL; MFC (Nakaseomyces glabratus): > 10000 µg/mL; MFC (Candida albicans): > 10000 µg/mL
